{"source": "patent US20100267561A1", "about": "“HERBICIDAL PYRIDAZINONE DERIVATIVES” (priority 2007, published 2010)", "format_in_all_cases": "in vivo", "key": {"[1]": {"test_system": "barnyardgrass (Echinochloa crus-galli)", "experiment": "Test A pre-/postemergence plant response", "procedure,_shortened": "(§1)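 Both pre- and postemergence treatment given concurrently; postemergence seedlings measured 2–10 cm at the one- to two-leaf stage. Visual injury, 0–100 scale versus untreated, at ~10 days.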"}, "corn (Zea mays)": {"test_system": "corn (Zea mays)", "experiment": "Test A pre-/postemergence plant response", "procedure,_shortened": "as §1"}, "[2]": {"test_system": "giant foxtail (Setaria faberi)", "experiment": "Test A pre-/postemergence plant response", "procedure,_shortened": "as §1"}, "[3]": {"test_system": "large crabgrass (Digitaria sanguinalis)", "experiment": "Test A pre-/postemergence plant response", "procedure,_shortened": "as §1"}, "[4]": {"test_system": "morningglory (Ipomoea coccinea)", "experiment": "Test A pre-/postemergence plant response", "procedure,_shortened": "as §1"}, "[5]": {"test_system": "velvetleaf (Abutilon theophrasti)", "experiment": "Test A pre-/postemergence plant response", "procedure,_shortened": "as §1"}, "[6]": {"test_system": "wheat (Triticum aestivum)", "experiment": "Test B pre-/postemergence plant response", "conditions": "for Plant response rating, Wheat: Postemergence", "procedure,_shortened": "(§2)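 Preemergence and postemergence (plants 2-18 cm, 1- to 4-leaf stage) applications used test chemicals in a non-phytotoxic solvent with surfactant. Plants were held in a greenhouse 13 to 15 days, then rated visually against controls on a 0-100 scale (0 no effect, 100 complete control).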"}, "wild oat (Avena fatua)": {"test_system": "wild oat (Avena fatua)", "experiment": "Test B pre-/postemergence plant response", "conditions": "for Plant response rating, Oat, Wild: Postemergence", "procedure,_shortened": "as §2"}, "[7]": {"test_system": "yellow nutsedge (Cyperus esculentus)", "experiment": "Test B pre-/postemergence plant response", "conditions": "for Plant response rating, Nutsedge, Yellow: Postemergence", "procedure,_shortened": "as §2"}, "[8]": {"test_system": "canarygrass (Phalaris minor)", "experiment": "Test B postemergence plant response", "conditions": "for Plant response rating, Canarygrass: Postemergence", "procedure,_shortened": "(§3)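 Compounds applied after emergence to 2–18 cm plants; response read visually 13–15 days later on 0 (none) to 100 (complete control); a dash marks no result.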"}, "[9]": {"test_system": "chickweed (Stellaria media)", "experiment": "Test B postemergence plant response", "conditions": "for Plant response rating, Chickweed: Postemergence", "procedure,_shortened": "as §3"}, "[10]": {"test_system": "windgrass (Apera spica-venti)", "experiment": "Test B postemergence plant response", "conditions": "for Plant response rating, Windgrass: Postemergence", "procedure,_shortened": "as §3"}, "[11]": {"test_system": "winter barley (Hordeum vulgare)", "experiment": "Test B postemergence plant response", "conditions": "for Plant response rating, Barley: Postemergence, scale 0 to 100, 0 no effect, 100 complete control", "procedure,_shortened": "as §3"}, "[12]": {"conditions": "Postemergence, 31 g ai/ha, 0 to 100 scale, 0 no effect, 100 complete control"}, "[13]": {"conditions": "Postemergence, 125 g ai/ha, 0 to 100 scale, 0 no effect, 100 complete control"}, "[14]": {"conditions": "Preemergence, 31 g ai/ha, 0 to 100 scale, 0 is no effect, 100 is complete control"}, "[15]": {"conditions": "Preemergence, 125 g ai/ha, 0 to 100 scale (0 no effect, 100 complete control)"}, "[16]": {"conditions": "8 g ai/ha, postemergence, 0-100 scale"}, "[17]": {"conditions": "62 g ai/ha, scale 0 to 100, 0 no effect, 100 complete control"}}}
{"compound": "Cc1nn(C)c(=O)c(-n2nc(-c3ccc(Cl)cc3)cc2Cl)c1O", "note": "[Compound 59]", "values": [{"measurement": "Plant response rating, Barnyardgrass", "setting": "[1]; [12]", "value": 90}, {"measurement": "Plant response rating, Barnyardgrass", "setting": "[1]; [13]", "value": 100}, {"measurement": "Plant response rating, Barnyardgrass", "setting": "[1]; [14]", "value": 90}, {"measurement": "Plant response rating, Barnyardgrass", "setting": "[1]; [15]", "value": 100}, {"measurement": "Plant response rating, Corn", "setting": "corn (Zea mays); [12]", "value": 30}, {"measurement": "Plant response rating, Corn", "setting": "corn (Zea mays); [13]", "value": 70}, {"measurement": "Plant response rating, Corn", "setting": "corn (Zea mays); [14]", "value": 0}, {"measurement": "Plant response rating, Corn", "setting": "corn (Zea mays); [15]", "value": 60}, {"measurement": "Plant response rating, Foxtail, Giant", "setting": "[2]; [12]", "value": 90}, {"measurement": "Plant response rating, Foxtail, Giant", "setting": "[2]; [13]", "value": 90}, {"measurement": "Plant response rating, Foxtail, Giant", "setting": "[2]; [14]", "value": 70}, {"measurement": "Plant response rating, Foxtail, Giant", "setting": "[2]; [15]", "value": 90}, {"measurement": "Plant response rating, Crabgrass, Large", "setting": "[3]; [12]", "value": 50}, {"measurement": "Plant response rating, Crabgrass, Large", "setting": "[3]; [13]", "value": 90}, {"measurement": "Plant response rating, Crabgrass, Large", "setting": "[3]; [14]", "value": 20}, {"measurement": "Plant response rating, Crabgrass, Large", "setting": "[3]; [15]", "value": 50}, {"measurement": "Plant response rating, Morningglory", "setting": "[4]; [12]", "value": 0}, {"measurement": "Plant response rating, Morningglory", "setting": "[4]; [13]", "value": 0}, {"measurement": "Plant response rating, Morningglory", "setting": "[4]; [14]", "value": 0}, {"measurement": "Plant response rating, Morningglory", "setting": "[4]; [15]", "value": 0}, {"measurement": "Plant response rating, Velvetleaf", "setting": "[5]; [12]", "value": 0}, {"measurement": "Plant response rating, Velvetleaf", "setting": "[5]; [13]", "value": 0}, {"measurement": "Plant response rating, Velvetleaf", "setting": "[5]; [14]", "value": 0}, {"measurement": "Plant response rating, Velvetleaf", "setting": "[5]; [15]", "value": 0}, {"measurement": "Wheat plant response rating", "setting": "[6]; [16]", "value": 0}, {"measurement": "Plant response rating, Wheat", "setting": "[6]; 16 g ai/ha, scale 0 to 100", "value": 15}, {"measurement": "Plant response rating, Wheat", "setting": "[6]; 31 g ai/ha, scale 0 to 100", "value": 40}, {"measurement": "Plant response rating, Wheat", "setting": "[6]; [17]", "value": 50}, {"measurement": "Oat, Wild plant response rating", "setting": "wild oat (Avena fatua); [16]", "value": 45}, {"measurement": "Plant response rating, Oat, Wild", "setting": "wild oat (Avena fatua); 16 g ai/ha, scale 0 to 100", "value": 60}, {"measurement": "Plant response rating, Oat, Wild", "setting": "wild oat (Avena fatua); 31 g ai/ha, scale 0 to 100", "value": 70}, {"measurement": "Plant response rating, Oat, Wild", "setting": "wild oat (Avena fatua); [17]", "value": 80}, {"measurement": "Nutsedge, Yellow plant response rating", "setting": "[7]; [16]", "value": 0}, {"measurement": "Plant response rating, Nutsedge, Yellow", "setting": "[7]; 16 g ai/ha, scale 0 to 100", "value": 0}, {"measurement": "Plant response rating, Nutsedge, Yellow", "setting": "[7]; 31 g ai/ha, scale 0 to 100", "value": 0}, {"measurement": "Plant response rating, Nutsedge, Yellow", "setting": "[7]; [17]", "value": 0}, {"measurement": "Canarygrass plant response rating", "setting": "[8]; [16]", "value": 0}, {"measurement": "Plant response rating, Canarygrass", "setting": "[8]; 16 g ai/ha, scale 0 to 100", "value": 40}, {"measurement": "Plant response rating, Canarygrass", "setting": "[8]; 31 g ai/ha, scale 0 to 100", "value": 55}, {"measurement": "Plant response rating, Canarygrass", "setting": "[8]; [17]", "value": 70}, {"measurement": "Chickweed plant response rating", "setting": "[9]; [16]", "value": 0}, {"measurement": "Plant response rating, Chickweed", "setting": "[9]; 16 g ai/ha, scale 0 to 100", "value": 0}, {"measurement": "Plant response rating, Chickweed", "setting": "[9]; 31 g ai/ha, scale 0 to 100", "value": 0}, {"measurement": "Plant response rating, Chickweed", "setting": "[9]; [17]", "value": 0}, {"measurement": "Windgrass plant response rating", "setting": "[10]; [16]", "value": 0}, {"measurement": "Plant response rating, Windgrass", "setting": "[10]; 16 g ai/ha, scale 0 to 100", "value": 0}, {"measurement": "Plant response rating, Windgrass", "setting": "[10]; 31 g ai/ha, scale 0 to 100", "value": 10}, {"measurement": "Plant response rating, Windgrass", "setting": "[10]; [17]", "value": 50}, {"measurement": "Barley plant response rating", "setting": "[11]; [16]", "value": 0}, {"measurement": "Plant response rating, Barley", "setting": "[11]; 16 g ai/ha", "value": 0}, {"measurement": "Plant response rating, Barley", "setting": "[11]; 31 g ai/ha", "value": 20}, {"measurement": "Plant response rating, Barley", "setting": "[11]; 62 g ai/ha", "value": 50}]}
